From article PMC7580725 (Drug Delivery, 2020)

Legend:
[1] = Water contact angle of compressed powder (wettability); format: physicochemical; conditions: pure water drop on compressed slice, Mean ± S.D., n = 3
Method: Powdered materials of different formulations were measured for angle of repose applying a BT 1000 powder analyzer (DanDong Better size Instruments, China). The wettability of the powders was evaluated using a contact angle analyzer (Dataphysics OCA-35, Filderstadt, Germany). Prior to measurement, 300 mg of powder was dried and then compressed into a slice with a diameter size of approximately 12 mm under a pressure of 10 MPa for one minute. […] The dynamic wetting angle was recorded using a video system at the speed of 6 frames/min.

[2] = Dissolution test under sink condition; format: physicochemical; conditions: deionized water with 0.3% (w/v) SDS, 900 mL, 37 °C, 100 rpm, 20 mg FNB
Method: The dissolution test under sink condition was conducted utilizing a ZRS-8G dissolution tester equipped with USP paddle apparatus (TDTF, Tianjin, China) at 37 °C and 100 rpm. […] Aliquot release medium (5 mL) was withdrawn at predetermined time intervals and an equal volume of fresh medium was added to compensate the sampling loss. The obtained samples were filtered through a 0.22 μm microporous membrane, and determined at 288 nm by UV spectrophotometry (TU-1901, Beijing, China).

What does the source list for CC(C)OC(=O)C(C)(C)Oc1ccc(C(=O)c2ccc(Cl)cc2)cc1 [FNB, Fenofibrate]?
Contact angle [1]: 87.2 ± 0.4 °; drug release after 5 min [2]: 5.42%
